Reference: patent US5629288A, “Lipopeptide derivatives, a process for their preparation and their use” (Hoechst Aktiengesellschaft, priority 1994, dated 1997)

Tested on: venous blood from rhesus monkeys
Experiment: Hemolytic activity in vitro (standard hemolysis test)
Assay type: cell-based
Conditions: for Hemolysis (%): fresh heparinized rhesus monkey blood, 37° C., 3 hours, absorption at 540 nm, % of maximum inducible hemolysis (distilled water = 100%), dilutions 1600-3.125 mg/l, concentration behind the value not stated; for hemolysis in the standard hemolysis test (in words): rhesus monkey blood
Protocol: 2) Freshly removed venous blood from rhesus monkeys is used to measure the hemolytic activity. The blood is collected in heparinized tubes and 200 μl aliquots are distributed over 12 polyethylene tubes. 200 μl of distilled water are added to one aliquot, which serves as 100% standard, and another is mixed with 200 μl of physiological saline (0.9% NaCl) (0% standard). 200 μl portions of substance dilutions in physiological saline containing 1600, 800, 400, 200, 100, 50, 25, 12.5, 6.25 and 3.125 mg/l are distributed over the other tubes. All the tubes are cautiously swirled and incubated at 37° C. for 3 hours. Subsequently 100% standard is made up with 5 ml of distilled water, and the others are each made up with 5 ml of physiological saline and centrifuged at 700 g for 5 minutes.
The hemolysis is determined by measuring the absorption of the supernatant in a spectrophotometer at a wavelength of 540 nm. The absorption of the standard with complete hemolysis (distilled water) is set equal to 100%. The absorptions of the test product dilutions and of the 0% standard are measured and reported as a percentage of the maximum inducible hemolysis.

SMILES | Hemolysis (%) | hemolysis in the standard hemolysis test (in words)
CCCCCCCCCCCCC(=O)NC(CC(=O)O)C(=O)NC1C(=O)N2CCCCC2C(=O)NC(C(C)C(=O)O)C(=O)NC(CC(=O)O)C(=O)NCC(=O)NC(CC(=O)O)C(=O)NCC(=O)NC(C(C)N)C(=O)NC(C(C)C)C(=O)N2CCCC2C(=O)NC1C (centres unmarked) [Example 1, Tridecanoyl Derivative of A 1437 Cyclic Peptide] | 19.6% | –
CCCCCCCc1ccc(C(=O)NC(CC(=O)O)C(=O)NC2C(=O)N3CCCCC3C(=O)NC(C(C)C(=O)O)C(=O)NC(CC(=O)O)C(=O)NCC(=O)NC(CC(=O)O)C(=O)NCC(=O)NC(C(C)N)C(=O)NC(C(C)C)C(=O)N3CCCC3C(=O)NC2C)cc1 (centres unmarked) [Example 49] | 0.0% | –
CC(C)C1NC(=O)C(C(C)N)NC(=O)CNC(=O)C(CC(=O)O)NC(=O)CNC(=O)C(CC(=O)O)NC(=O)C(C(C)C(=O)O)NC(=O)C2CCCCN2C(=O)C(NC(=O)C(CC(=O)O)NC(=O)c2ccc(CCc3ccc(-c4ccccc4)cc3)cc2)C(C)NC(=O)C2CCCN2C1=O (centres unmarked) [Example 55] | 0.5% | virtually no evidence of hemolysis
CCCCCCCCCCCCCCC(=O)NC(CC(=O)O)C(=O)NC1C(=O)N2CCCCC2C(=O)NC(C(C)C(=O)O)C(=O)NC(CC(=O)O)C(=O)NCC(=O)NC(CC(=O)O)C(=O)NCC(=O)NC(C(C)N)C(=O)NC(C(C)C)C(=O)N2CCCC2C(=O)NC1C (centres unmarked) [Example 9] | 22.8% | –
CC(C)CCCCCCCCCCC(=O)NC(CC(=O)O)C(=O)NC1C(=O)N2CCCCC2C(=O)NC(C(C)C(=O)O)C(=O)NC(CC(=O)O)C(=O)NCC(=O)NC(CC(=O)O)C(=O)NCC(=O)NC(C(C)N)C(=O)NC(C(C)C)C(=O)N2CCCC2C(=O)NC1C (centres unmarked) [Example 14] | 22.9% | –
CC(C)C1NC(=O)C(C(C)N)NC(=O)CNC(=O)C(CC(=O)O)NC(=O)CNC(=O)C(CC(=O)O)NC(=O)C(C(C)C(=O)O)NC(=O)C2CCCCN2C(=O)C(NC(=O)C(CC(=O)O)NC(=O)c2ccc(CCc3ccc(CCc4ccccc4)cc3)cc2)C(C)NC(=O)C2CCCN2C1=O (centres unmarked) [Example 56] | 0.4% | virtually no evidence of hemolysis
CCCCCCCCCCC(=O)NC(CC(=O)O)C(=O)NC1C(=O)N2CCCCC2C(=O)NC(C(C)C(=O)O)C(=O)NC(CC(=O)O)C(=O)NCC(=O)NC(CC(=O)O)C(=O)NCC(=O)NC(C(C)N)C(=O)NC(C(C)C)C(=O)N2CCCC2C(=O)NC1C (centres unmarked) [Example 6] | 16.5% | –
CCCCCCCCCCCCCC(=O)NC(CC(=O)O)C(=O)NC1C(=O)N2CCCCC2C(=O)NC(C(C)C(=O)O)C(=O)NC(CC(=O)O)C(=O)NCC(=O)NC(CC(=O)O)C(=O)NCC(=O)NC(C(C)N)C(=O)NC(C(C)C)C(=O)N2CCCC2C(=O)NC1C (centres unmarked) [Example 8] | 19.3% | –
CCCCCCCCCCCC(=O)NC(CC(=O)O)C(=O)NC1C(=O)N2CCCCC2C(=O)NC(C(C)C(=O)O)C(=O)NC(CC(=O)O)C(=O)NCC(=O)NC(CC(=O)O)C(=O)NCC(=O)NC(C(C)N)C(=O)NC(C(C)C)C(=O)N2CCCC2C(=O)NC1C (centres unmarked) [Example 7] | 25.7% | –
